Test system: E. Coli (strain DH5α)
Assay: Testing of antimicrobial RXPIX: bacterial viability by turbidity of LB Broth
Assay type: cell-based
Conditions: 15 minutes fluid exchange at room temperature, then 2 ml LB Broth, 20 hours at 37° C., three replicates
Description: For each sample three replicate experiments were preformed. Briefly, a drop of the bacterium E. Coli (strain DH5α) was mixed with a small amount of a medium (Luria-Bertani Broth, or LB Broth) and allowed to exchange fluid with the floss device 10, which is named “RXPIX” for identification purposes in the following tests, for 15 minutes. After this period of time, 2 ml of LB Broth was added to each test tube and the bacteria were allowed to grow for 20 hours at 37° C. Observing the turbidity of the broth at this time assessed bacterial viability. Bacterial viability was also assessed analytically by measuring the absorbance of visible light (600 nm).
B. On Day 2, 1 micro liter of E. Coli cells was transferred to each 12×75 mm round bottom test tube for antimicrobial testing. In addition, 5 micro liters of fresh LB Broth were added to each test tube to allow for fluid exchange. […]
D. After 20 hours of incubation, bacterial viability was assessed. […]
E. To further characterize bacterial growth, the absorbance of 600 nm visible light was used to analytically measure turbidity. The broth from each sample was measured with a spectrophotometer equipped with a lamp emitting visible light.

CCO [70% ethanol, ethanol]
bacterial growth (turbidity of the LB Broth): no bacterial growth | bacterial growth (turbidity of the LB Broth) (listed as 70% ethyl alcohol): not showing bacterial growth

— patent publication US20140335474A1, “FLOSS DEVICE, A METHOD OF FORMING THE FLOSS DEVICE AND A METHOD OF USING THE FLOSS DEVICE” (priority 2008, published 2014)
